Assay results reported in US10590129B2 (Incozen Therapeutics Pvt. Ltd., priority 2010, dated 2020).

Experiments:
MKN-45 cells = assay: Inhibition of MKN-45 proliferation (MTT); format: cell-based, human; settings: for inhibition at 0.1 µM / inhibition at 1 µM: Homo sapiens, MKN-45, MKN-45 proliferation
Method in brief: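 High-Met human gastric adenocarcinoma MKN-45 cells plated in complete growth medium, compounds added next day and viability read 3 days later by MTT dye reduction.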

Row | SMILES | melting point [°C] | inhibition at 0.1 µM (MKN-45 cells; 0.1 μM) [%] | inhibition at 1 µM (MKN-45 cells; 1 μM) [%] | Inhibition (% Inhibition of MKN-45 proliferation) (MKN-45 cells; MKN-45 proliferation, 0.1 μM) | % inhibition @ 1 uM (MKN-45 cells; MKN-45 proliferation, 1 μM)
1 | CC(C)NS(=O)(=O)c1ccc(-c2ccc3nnn(Cc4ccc5ncccc5c4)c3n2)cc1 [Ex 95, N-Isopropyl-4-(3-(quinolin-6-ylmethyl)-3H-[1,2,3]triazolo[4,5-b]pyridin-5-yl)benzenesulfonamide] | 154 to 156 | < 25 | 50 to 75 |  | 
2 | CN(C)c1cccc(-c2ccc3nnn(Cc4ccc5ncccc5c4)c3n2)c1 [Ex 96, N,N-Dimethyl-3-(3-(quinolin-6-ylmethyl)-3H-[1,2,3]triazolo[4,5-b]pyridin-5-yl)aniline] | 124 to 126 | < 25 | < 25 |  | 
3 | O=C(NC1CCCC1)c1ccc(-c2ccc3nnn(Cc4ccc5ncccc5c4)c3n2)cc1F [Ex 98, N-Cyclopentyl-2-fluoro-4-(3-(quinolin-6-ylmethyl)-3H-[1,2,3]triazolo[4,5-b]pyridin-5-yl)benzamide] | 166 to 168 | 25 to 50 | 50 to 75 |  | 
4 | CNC(=O)c1ccc(-c2ccc3nnn(C(C)(C)c4ccc5ncccc5c4)c3n2)cc1F [Ex 103, 2-Fluoro-N-methyl-4-(3-(2-(quinolin-6-yl)propan-2-yl)-3H-[1,2,3]triazolo[4,5-b]pyridin-5-yl)benzamide] | 171 to 173 | < 25 |  |  | 
5 | CCCNC(=O)c1ccc(-c2ccc3nnn(C(C)(C)c4ccc5ncccc5c4)c3n2)cc1F [Ex 105, 2-Fluoro-N-propyl-4-(3-(2-(quinolin-6-yl)propan-2-yl)-3H-[1,2,3]triazolo[4,5-b]pyridin-5-yl)benzamide] | 162 to 164 | < 25 | < 25 |  | 
6 | CC(C)(c1ccc2ncccc2c1)n1nnc2ccc(-c3ccc(C(=O)NC4CC4)c(F)c3)nc21 [Ex 106, N-Cyclopropyl-2-fluoro-4-(3-(2-(quinolin-6-yl)propan-2-yl)-3H-[1,2,3]triazolo[4,5-b]pyridin-5-yl)benzamide] | 156 to 159 | < 25 | 75 to 100 |  | 
7 | CCNC(=O)c1ccc(-c2ccc3nnn(C(C)(C)c4ccc5ncccc5c4)c3n2)cc1F [Ex 107, N-Ethyl-2-fluoro-4-(3-(2-(quinolin-6-yl)propan-2-yl)-3H-[1,2,3]triazolo[4,5-b]pyridin-5-yl)benzamide] | 132 to 135 | < 25 |  |  | 
8 | CNC(=O)c1ccc(-c2ccc3nnn(Cc4ccc5ncccc5c4)c3n2)cc1Cl [Ex 109, 2-Chloro-N-methyl-4-(3-(quinolin-6-ylmethyl)-3H-[1,2,3]triazolo[4,5-b]pyridin-5-yl)benzamide] | 227 to 230 | 75 to 100 |  |  | 
9 | O=C(Nc1nccs1)c1ccc(-c2ccc3nnn(Cc4ccc5ncccc5c4)c3n2)cc1F [Ex 111, 2-Fluoro-4-(3-(quinolin-6-ylmethyl)-3H-[1,2,3]triazolo[4,5-b]pyridin-5-yl)-N-(thiazol-2-yl)benzamide] | 204 to 206 | < 25 | 75 to 100 |  | 

Now from value to compound, other results behind:

Row | melting point [°C] | SMILES | inhibition at 0.1 µM (MKN-45 cells; 0.1 μM) [%] | inhibition at 1 µM (MKN-45 cells; 1 μM) [%] | Inhibition (% Inhibition of MKN-45 proliferation) (MKN-45 cells; MKN-45 proliferation, 0.1 μM) | % inhibition @ 1 uM (MKN-45 cells; MKN-45 proliferation, 1 μM)
10 | 105 to 107 | Cl.O=C(NC1CC1)c1ccc(-c2ccc3nnn(Cc4ccc5ncccc5c4)c3n2)cc1F [Ex 89, N-Cyclopropyl-2-fluoro-4-(3-(quinolin-6-ylmethyl)-3H-[1,2,3]triazolo[4,5-b]pyridin-5-yl)benzamide hydrochloride] | 75 to 100 | < 25 |  | 
11 | 120 to 122 | O=C(NCC1CC1)c1ccc(-c2ccc3nnn(Cc4ccc5ncccc5c4)c3n2)cc1F [Ex 90, N-(Cyclopropylmethyl)-2-fluoro-4-(3-(quinolin-6-ylmethyl)-3H-[1,2,3]triazolo[4,5-b]pyridin-5-yl)benzamide] | 50 to 75 | 75 to 100 |  | 
12 | 100 to 102 | CCCCNC(=O)c1ccc(-c2ccc3nnn(Cc4ccc5ncccc5c4)c3n2)cc1F [Ex 91, N-Butyl-2-fluoro-4-(3-(quinolin-6-ylmethyl)-3H-[1,2,3]triazolo[4,5-b]pyridin-5-yl)benzamide] | 25 to 50 | 50 to 75 |  | 
13 | 144 to 147 | O=C(NCc1ccco1)c1ccc(-c2ccc3nnn(Cc4ccc5ncccc5c4)c3n2)cc1F [Ex 92, 2-Fluoro-N-(furan-2-ylmethyl)-4-(3-(quinolin-6-ylmethyl)-3H-[1,2,3]triazolo[4,5-b]pyridin-5-yl)benzamide] |  | < 25 |  | 
14 | 194 to 196 | O=C(NCC(F)(F)F)c1ccc(-c2ccc3nnn(Cc4ccc5ncccc5c4)c3n2)cc1F [Ex 93, 2-Fluoro-4-(3-(quinolin-6-ylmethyl)-3H-[1,2,3]triazolo[4,5-b]pyridin-5-yl)-N-(2,2,2-trifluoroethyl)benzamide] | 25 to 50 | 25 to 50 |  | 
15 | 162 to 164 | COCCNC(=O)c1ccc(-c2ccc3nnn(Cc4ccc5ncccc5c4)c3n2)cc1F [Ex 94, 2-Fluoro-N-(2-methoxyethyl)-4-(3-(quinolin-6-ylmethyl)-3H-[1,2,3]triazolo[4,5-b]pyridin-5-yl)benzamide] | 50 to 75 | < 25 |  | 
16 | 158 to 160 | CC(C)CNC(=O)c1ccc(-c2ccc3nnn(Cc4ccc5ncccc5c4)c3n2)cc1F [Ex 97, 2-Fluoro-N-isobutyl-4-(3-(quinolin-6-ylmethyl)-3H-[1,2,3]triazolo[4,5-b]pyridin-5-yl)benzamide] | 25 to 50 | 25 to 50 |  | 
17 | 177 to 179 | CC(C)NC(=O)c1ccc(-c2ccc3nnn(Cc4ccc5ncccc5c4)c3n2)cc1F [Ex 99, 2-Fluoro-N-isopropyl-4-(3-(quinolin-6-ylmethyl)-3H-[1,2,3]triazolo[4,5-b]pyridin-5-yl)benzamide] | 50 to 75 | 50 to 75 |  | 
18 | 128 to 130 | CCCNC(=O)c1ccc(-c2ccc3nnn(Cc4ccc5ncccc5c4)c3n2)cc1Cl [Ex 102, 2-Chloro-N-propyl-4-(3-(quinolin-6-ylmethyl)-3H-[1,2,3]triazolo[4,5-b]pyridin-5-yl)benzamide] | 50 to 75 | 75 to 100 |  | 
19 | 171 to 174 | O=C(NC1CCC1)c1ccc(-c2ccc3nnn(Cc4ccc5ncccc5c4)c3n2)cc1F [Ex 104, N-Cyclobutyl-2-fluoro-4-(3-(quinolin-6-ylmethyl)-3H-[1,2,3]triazolo[4,5-b]pyridin-5-yl)benzamide] | 50 to 75 | 75 to 100 |  | 
20 | 145 to 147 | CONC(=O)c1ccc(-c2ccc3nnn(Cc4ccc5ncccc5c4)c3n2)cc1F.Cl [Ex 110, 2-Fluoro-N-methoxy-4-(3-(quinolin-6-ylmethyl)-3H-[1,2,3]triazolo[4,5-b]pyridin-5-yl)benzamide hydrochloride] |  |  | B (B = ≥50-<75%) | B (B = ≥50-<75%)
21 | 151 to 153 | O=C(NCCC(=O)N1CCCC1)c1ccc(-c2ccc3nnn(Cc4ccc5ncccc5c4)c3n2)cc1F [Ex 114, 2-Fluoro-N-(3-oxo-3-(pyrrolidin-1-yl)propyl)-4-(3-(quinolin-6-ylmethyl)-3H-[1,2,3]triazolo[4,5-b]pyridin-5-yl)benzamide] | 50 to 75 | 50 to 75 |  | 
